Measured values reported in the NIST ThermoML archive (doi:10.1021/je100231g).
Values joined by “and” are separate entries in the source; they are usually repeats but may differ in a detail not shown here. Equal values may be shown once. ± gives the expanded uncertainty stated by the source.

Conditions: Liquid, Gas Saturation Method

## CCCCOC(=O)CCCC(=O)OCCCC [dibutyl pentanedioate]
317.5 K
  vapor or sublimation pressure: 0.00064 ± 4e-05 kPa
318.3 K
  vapor or sublimation pressure: 0.0007 ± 4e-05 kPa
322.4 K
  vapor or sublimation pressure: 0.00103 ± 7e-05 kPa
323.4 K
  vapor or sublimation pressure: 0.00114 ± 7e-05 kPa and 0.00113 ± 7e-05 kPa
325.4 K
  vapor or sublimation pressure: 0.00132 ± 8e-05 kPa
326.5 K
  vapor or sublimation pressure: 0.00145 ± 9e-05 kPa
328.4 K
  vapor or sublimation pressure: 0.00179 ± 0.00011 kPa and 0.00173 ± 0.00011 kPa
330.6 K
  vapor or sublimation pressure: 0.0021 ± 0.00013 kPa
331.5 K
  vapor or sublimation pressure: 0.00229 ± 0.00014 kPa
333.5 K
  vapor or sublimation pressure: 0.00273 ± 0.00017 kPa
334.6 K
  vapor or sublimation pressure: 0.00306 ± 0.00019 kPa
334.7 K
  vapor or sublimation pressure: 0.00298 ± 0.00019 kPa
337.6 K
  vapor or sublimation pressure: 0.00375 ± 0.00023 kPa
338.6 K
  vapor or sublimation pressure: 0.00404 ± 0.00025 kPa
340.5 K
  vapor or sublimation pressure: 0.00475 ± 0.0003 kPa
343.3 K
  vapor or sublimation pressure: 0.006 ± 0.00037 kPa
346.6 K
  vapor or sublimation pressure: 0.00782 ± 0.00048 kPa
349.6 K
  vapor or sublimation pressure: 0.00973 ± 0.00061 kPa
350.3 K
  vapor or sublimation pressure: 0.0103 ± 0.0006 kPa
352.5 K
  vapor or sublimation pressure: 0.0121 ± 0.0008 kPa
354.7 K
  vapor or sublimation pressure: 0.0145 ± 0.0009 kPa
357.5 K
  vapor or sublimation pressure: 0.0177 ± 0.0011 kPa
360.6 K
  vapor or sublimation pressure: 0.0213 ± 0.0013 kPa
363.4 K
  vapor or sublimation pressure: 0.026 ± 0.0016 kPa
366.4 K
  vapor or sublimation pressure: 0.0318 ± 0.002 kPa
369.5 K
  vapor or sublimation pressure: 0.0403 ± 0.0025 kPa

## CCOC(=O)CC(=O)OCC [diethyl 1,3-propanedioate]
283.8 K
  vapor or sublimation pressure: 0.00689 ± 0.00044 kPa
286.2 K
  vapor or sublimation pressure: 0.00858 ± 0.00054 kPa
289.2 K
  vapor or sublimation pressure: 0.0115 ± 0.0007 kPa
292.3 K
  vapor or sublimation pressure: 0.015 ± 0.0009 kPa
295.2 K
  vapor or sublimation pressure: 0.0193 ± 0.0012 kPa
298.2 K
  vapor or sublimation pressure: 0.0251 ± 0.0016 kPa
301.3 K
  vapor or sublimation pressure: 0.0321 ± 0.002 kPa
304.2 K
  vapor or sublimation pressure: 0.0405 ± 0.0026 kPa
304.7 K
  vapor or sublimation pressure: 0.0428 ± 0.0027 kPa
307.3 K
  vapor or sublimation pressure: 0.0513 ± 0.0032 kPa
310.2 K
  vapor or sublimation pressure: 0.0646 ± 0.004 kPa
313.3 K
  vapor or sublimation pressure: 0.0814 ± 0.005 kPa
316.3 K
  vapor or sublimation pressure: 0.1005 ± 0.0062 kPa

## CCOC(=O)CCC(=O)OCC [diethyl butanedioate]
290.2 K
  vapor or sublimation pressure: 0.00495 ± 0.0003 kPa
290.5 K
  vapor or sublimation pressure: 0.00504 ± 0.00031 kPa
293.5 K
  vapor or sublimation pressure: 0.00678 ± 0.00042 kPa
296.4 K
  vapor or sublimation pressure: 0.00861 ± 0.00054 kPa
301.4 K
  vapor or sublimation pressure: 0.0134 ± 0.0008 kPa
306.4 K
  vapor or sublimation pressure: 0.0208 ± 0.0013 kPa
311.4 K
  vapor or sublimation pressure: 0.0313 ± 0.0019 kPa
313.4 K
  vapor or sublimation pressure: 0.035 ± 0.0022 kPa
316.4 K
  vapor or sublimation pressure: 0.0455 ± 0.0028 kPa
318.4 K
  vapor or sublimation pressure: 0.0503 ± 0.0031 kPa
321.4 K
  vapor or sublimation pressure: 0.0661 ± 0.0041 kPa
323.5 K
  vapor or sublimation pressure: 0.0777 ± 0.0048 kPa
326.5 K
  vapor or sublimation pressure: 0.0941 ± 0.0058 kPa and 0.0963 ± 0.0059 kPa
328.5 K
  vapor or sublimation pressure: 0.1125 ± 0.0069 kPa
331.4 K
  vapor or sublimation pressure: 0.133 ± 0.0081 kPa
331.6 K
  vapor or sublimation pressure: 0.1351 ± 0.0082 kPa
333.6 K
  vapor or sublimation pressure: 0.1517 ± 0.0093 kPa
336.5 K
  vapor or sublimation pressure: 0.1864 ± 0.011 kPa
339.4 K
  vapor or sublimation pressure: 0.2221 ± 0.014 kPa
342.4 K
  vapor or sublimation pressure: 0.2658 ± 0.016 kPa
345.5 K
  vapor or sublimation pressure: 0.3425 ± 0.021 kPa

## CCOC(=O)C(=O)OCC [diethyl ethanedioate]
283.6 K
  vapor or sublimation pressure: 0.0164 ± 0.0011 kPa
288.5 K
  vapor or sublimation pressure: 0.0256 ± 0.0016 kPa
293.4 K
  vapor or sublimation pressure: 0.0392 ± 0.0024 kPa
298.3 K
  vapor or sublimation pressure: 0.0571 ± 0.0035 kPa
303.3 K
  vapor or sublimation pressure: 0.0814 ± 0.0051 kPa
308.4 K
  vapor or sublimation pressure: 0.1254 ± 0.0077 kPa
311.3 K
  vapor or sublimation pressure: 0.1509 ± 0.0093 kPa
313.5 K
  vapor or sublimation pressure: 0.175 ± 0.011 kPa
316.4 K
  vapor or sublimation pressure: 0.2075 ± 0.013 kPa
318.3 K
  vapor or sublimation pressure: 0.2434 ± 0.015 kPa
321.4 K
  vapor or sublimation pressure: 0.2972 ± 0.018 kPa
325.4 K
  vapor or sublimation pressure: 0.3834 ± 0.024 kPa
329.5 K
  vapor or sublimation pressure: 0.4832 ± 0.03 kPa
333.5 K
  vapor or sublimation pressure: 0.6275 ± 0.038 kPa

## CCOC(=O)CCCC(=O)OCC [diethyl glutarate]
298.3 K
  vapor or sublimation pressure: 0.00352 ± 0.00023 kPa
303.4 K
  vapor or sublimation pressure: 0.00575 ± 0.00036 kPa
308.6 K
  vapor or sublimation pressure: 0.00877 ± 0.00054 kPa
311.2 K
  vapor or sublimation pressure: 0.0108 ± 0.0007 kPa
313.5 K
  vapor or sublimation pressure: 0.0134 ± 0.0008 kPa
316.2 K
  vapor or sublimation pressure: 0.0161 ± 0.001 kPa
318.2 K
  vapor or sublimation pressure: 0.0185 ± 0.0015 kPa
318.5 K
  vapor or sublimation pressure: 0.02 ± 0.0016 kPa
322.2 K
  vapor or sublimation pressure: 0.0254 ± 0.0016 kPa
323.3 K
  vapor or sublimation pressure: 0.0277 ± 0.0017 kPa
328.2 K
  vapor or sublimation pressure: 0.0405 ± 0.0025 kPa
333.2 K
  vapor or sublimation pressure: 0.0601 ± 0.0037 kPa
338.2 K
  vapor or sublimation pressure: 0.0874 ± 0.0054 kPa
343.2 K
  vapor or sublimation pressure: 0.1236 ± 0.0076 kPa
347.9 K
  vapor or sublimation pressure: 0.1725 ± 0.011 kPa

## CCOC(=O)CCCCC(=O)OCC [diethyl hexanedioate]
303.5 K
  vapor or sublimation pressure: 0.0022 ± 0.00014 kPa
308.2 K
  vapor or sublimation pressure: 0.00343 ± 0.00021 kPa
313.3 K
  vapor or sublimation pressure: 0.00523 ± 0.00033 kPa
318.2 K
  vapor or sublimation pressure: 0.00793 ± 0.00049 kPa
323.1 K
  vapor or sublimation pressure: 0.0118 ± 0.0007 kPa
328.2 K
  vapor or sublimation pressure: 0.0185 ± 0.0011 kPa
329.6 K
  vapor or sublimation pressure: 0.0209 ± 0.0013 kPa
333.2 K
  vapor or sublimation pressure: 0.0273 ± 0.0017 kPa
335.2 K
  vapor or sublimation pressure: 0.0323 ± 0.002 kPa
338.2 K
  vapor or sublimation pressure: 0.039 ± 0.0024 kPa
340.2 K
  vapor or sublimation pressure: 0.0462 ± 0.0029 kPa
343.2 K
  vapor or sublimation pressure: 0.0561 ± 0.0035 kPa
346.2 K
  vapor or sublimation pressure: 0.0698 ± 0.0043 kPa
349.1 K
  vapor or sublimation pressure: 0.0851 ± 0.0052 kPa
352.2 K
  vapor or sublimation pressure: 0.1061 ± 0.0065 kPa

## CCCOC(=O)CC(=O)OCCC [dipropyl 1,3-propanedioate]
293.3 K
  vapor or sublimation pressure: 0.00356 ± 0.00023 kPa
298.3 K
  vapor or sublimation pressure: 0.00582 ± 0.00037 kPa
299.4 K
  vapor or sublimation pressure: 0.00652 ± 0.00041 kPa
303.2 K
  vapor or sublimation pressure: 0.00897 ± 0.00056 kPa
307.3 K
  vapor or sublimation pressure: 0.0129 ± 0.0008 kPa
308.2 K
  vapor or sublimation pressure: 0.0135 ± 0.0009 kPa
311.3 K
  vapor or sublimation pressure: 0.0178 ± 0.0011 kPa
313.3 K
  vapor or sublimation pressure: 0.0199 ± 0.0012 kPa
315.3 K
  vapor or sublimation pressure: 0.0245 ± 0.0015 kPa
318.5 K
  vapor or sublimation pressure: 0.0296 ± 0.0018 kPa
319.4 K
  vapor or sublimation pressure: 0.0332 ± 0.0021 kPa
323.4 K
  vapor or sublimation pressure: 0.0426 ± 0.0026 kPa
328.5 K
  vapor or sublimation pressure: 0.0622 ± 0.0038 kPa
333.5 K
  vapor or sublimation pressure: 0.089 ± 0.0055 kPa
336.4 K
  vapor or sublimation pressure: 0.1095 ± 0.0068 kPa
338.5 K
  vapor or sublimation pressure: 0.13 ± 0.008 kPa

## CCCOC(=O)CCCCC(=O)OCCC [dipropyl hexanedioate]
318.8 K
  vapor or sublimation pressure: 0.00173 ± 0.00011 kPa
321.7 K
  vapor or sublimation pressure: 0.00222 ± 0.00014 kPa
323.5 K
  vapor or sublimation pressure: 0.0026 ± 0.00016 kPa
327.4 K
  vapor or sublimation pressure: 0.00367 ± 0.00023 kPa
333.2 K
  vapor or sublimation pressure: 0.00602 ± 0.00037 kPa
336.1 K
  vapor or sublimation pressure: 0.00765 ± 0.00048 kPa
339.1 K
  vapor or sublimation pressure: 0.00972 ± 0.0006 kPa
342.1 K
  vapor or sublimation pressure: 0.0122 ± 0.0008 kPa
345.5 K
  vapor or sublimation pressure: 0.0152 ± 0.0009 kPa
348.3 K
  vapor or sublimation pressure: 0.0196 ± 0.0012 kPa
351.5 K
  vapor or sublimation pressure: 0.0253 ± 0.0016 kPa
354.2 K
  vapor or sublimation pressure: 0.0306 ± 0.0019 kPa
357.1 K
  vapor or sublimation pressure: 0.0373 ± 0.0023 kPa
361.2 K
  vapor or sublimation pressure: 0.0485 ± 0.003 kPa
365.3 K
  vapor or sublimation pressure: 0.0639 ± 0.0039 kPa

## CCCOC(=O)CCCC(=O)OCCC [pentanedioic acid, dipropyl ester]
313.3 K
  vapor or sublimation pressure: 0.00276 ± 0.00017 kPa
316.4 K
  vapor or sublimation pressure: 0.00359 ± 0.00022 kPa
318.5 K
  vapor or sublimation pressure: 0.00444 ± 0.00028 kPa
319.4 K
  vapor or sublimation pressure: 0.00478 ± 0.0003 kPa
322.5 K
  vapor or sublimation pressure: 0.00609 ± 0.00037 kPa
323.5 K
  vapor or sublimation pressure: 0.00637 ± 0.0004 kPa
325.4 K
  vapor or sublimation pressure: 0.00778 ± 0.00049 kPa
328.5 K
  vapor or sublimation pressure: 0.01 ± 0.0006 kPa
329.5 K
  vapor or sublimation pressure: 0.0109 ± 0.0007 kPa
331.4 K
  vapor or sublimation pressure: 0.0128 ± 0.0008 kPa
333.6 K
  vapor or sublimation pressure: 0.0149 ± 0.0009 kPa
336.4 K
  vapor or sublimation pressure: 0.0184 ± 0.0011 kPa
338.5 K
  vapor or sublimation pressure: 0.022 ± 0.0014 kPa
341.4 K
  vapor or sublimation pressure: 0.0271 ± 0.0017 kPa
343.6 K
  vapor or sublimation pressure: 0.031 ± 0.0019 kPa
346.4 K
  vapor or sublimation pressure: 0.0385 ± 0.0024 kPa
348.4 K
  vapor or sublimation pressure: 0.0432 ± 0.0027 kPa
350.5 K
  vapor or sublimation pressure: 0.0504 ± 0.0031 kPa
353.5 K
  vapor or sublimation pressure: 0.0628 ± 0.0039 kPa
